In brackets after ≈: the same amount, converted by molar mass. Read-outs that look alike come from different tables or passages of the source.
Legend:
[1] = system: multidrug-resistant M. tuberculosis isolates; test: microbe, parasite or virus in culture; format: cell-based; settings: for MIC: Mycobacterium tuberculosis, read-out: In vitro activity (MIC)
M. tuberculosis H37Rv = format: cell-based

Compound	MIC ([1]; H37RV, M. tuberculosis H37Rv)	MIC [1]	Resistance frequency at 10× MIC (M. tuberculosis H37Rv)	cross-resistance against multidrug-resistant isolates [1]	Resistance frequency at 4× MIC (M. tuberculosis H37Rv)	In vitro activity (MIC) ([1]; listed as Cmp13)
NNC(=O)c1ccncc1 [Isoniazid, isoniazid, reference compound]	0.06 µg/mL (≈ 0.438 µM)	> 0.12 µg/mL	1.8 × 10^−5	–	–	–
CCOc1ccc(Br)c2c1B(O)O[C@@H]2CN [Compound 14]	0.03 µg/mL (≈ 0.105 µM)	0.03 µg/mL (≈ 0.105 µM)	3.9 × 10^−6	did not show any cross-resistance	4.6 × 10^−6	–
COc1c(N2C[C@@H]3CCCN[C@@H]3C2)c(F)cc2c(=O)c(C(=O)O)cn(C3CC3)c12 [Moxifloxacin, moxifloxacin, reference compound]	–	–	1.1 × 10^−8	–	1.7 × 10^−7	–
CCOc1ccc(Cl)c2c1B(O)O[C@@H]2CN [Compound 13]	0.015 µg/mL (≈ 0.0621 µM)	0.015 µg/mL (≈ 0.0621 µM)	–	did not show any cross-resistance	–	0.030 µg/mL
